According to US11130780B2, “Inhibitors of growth factor activation enzymes” (Washington University, priority 2015, dated 2021):
Like-named read-outs stand apart in the source and are kept apart here. Starred links: 1 amine or outer side, 2 acyl side, 3 side chain; linkers in the order of their positions; H or OH if unused. Non-standard residues stand in square brackets, D forms with d. Residues, ends and D or L forms follow the SMILES beside them. X1 = N=C(N)NCCC[C@H](N[*:1])C(=O)c1nc2ccc(C(=O)[*:2])cc2s1

Experiments:
Type in all cases: biochemical
HGFA = target: T1, HGFA (Homo sapiens, UniProt Q04756); experiment: Fluorescent kinetic enzyme inhibitor assay of HGFA; details: read-out: HGFA Ki
T1 construct: His6 tag (N); seven amino acid spacer and seven amino acid TEV cleavage site (N); Honey Bee melittin signal peptide (N); made in house; host or cells: High 5 insect cells (baculovirus; virus raised in Sf9)
T1 sequence (Q04756 373-655): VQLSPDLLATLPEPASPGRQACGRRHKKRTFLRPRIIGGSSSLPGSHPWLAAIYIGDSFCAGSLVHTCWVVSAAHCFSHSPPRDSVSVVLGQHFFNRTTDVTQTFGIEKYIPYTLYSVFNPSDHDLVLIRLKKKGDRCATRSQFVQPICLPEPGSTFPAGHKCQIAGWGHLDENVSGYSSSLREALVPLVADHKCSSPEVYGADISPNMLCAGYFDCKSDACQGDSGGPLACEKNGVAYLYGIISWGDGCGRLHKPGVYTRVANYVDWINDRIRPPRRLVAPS
Method in brief: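 Recombinant His-tagged HGFA residues 373-655 from insect cells, with substrate at Km. Inhibitors in 11-point dilutions, 0-20 μM final, 2% DMSO, fluorescence (ex 380/em 460 nm) followed over time at room temperature. IC50 from four-parameter fit of mean velocity, average of three experiments.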

matriptase = target: T2, matriptase (Homo sapiens, UniProt Q9Y5Y6); experiment: Fluorescent kinetic enzyme inhibitor assay of matriptase
T2 construct: Charles Craik, UCSF (obtained from another laboratory)
T2 sequence (Q9Y5Y6 615-855 limits assumed): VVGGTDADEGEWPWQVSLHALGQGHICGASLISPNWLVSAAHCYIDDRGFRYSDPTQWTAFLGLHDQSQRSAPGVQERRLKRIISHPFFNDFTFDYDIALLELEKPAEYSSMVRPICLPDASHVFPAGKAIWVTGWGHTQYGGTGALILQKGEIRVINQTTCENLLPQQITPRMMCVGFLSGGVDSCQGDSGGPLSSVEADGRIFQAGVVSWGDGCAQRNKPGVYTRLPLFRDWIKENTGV
Method in brief: (§1)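 Fluorescence (ex 380/em 460 nm) followed kinetically at room temperature; IC50 from four-parameter fit of mean velocity versus concentration, averaged over three experiments.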

hepsin = target: T3, hepsin (Homo sapiens, UniProt P05981); experiment: Fluorescent kinetic enzyme inhibitor assay of hepsin
T3 construct: purchased R&D Systems 4776-SE-010
T3 sequence (P05981 163-417 limits assumed): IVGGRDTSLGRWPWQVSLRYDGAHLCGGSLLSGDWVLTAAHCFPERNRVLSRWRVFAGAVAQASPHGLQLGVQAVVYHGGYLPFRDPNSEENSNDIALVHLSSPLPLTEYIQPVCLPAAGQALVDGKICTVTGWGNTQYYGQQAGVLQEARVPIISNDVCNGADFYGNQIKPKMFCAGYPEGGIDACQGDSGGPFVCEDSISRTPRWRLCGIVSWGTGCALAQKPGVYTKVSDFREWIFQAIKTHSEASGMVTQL
T3 sequence (P05981 45-162 partner limits assumed): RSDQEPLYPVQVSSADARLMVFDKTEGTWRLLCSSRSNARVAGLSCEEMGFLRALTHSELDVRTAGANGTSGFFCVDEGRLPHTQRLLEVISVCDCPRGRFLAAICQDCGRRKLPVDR
Method in brief: as §1

thrombin = thrombin (Homo sapiens, UniProt P00734); experiment: Chromogenic kinetic enzyme assay of thrombin
Protocol: (§2) Inhibitors (11-pt serial dilutions, 0-20 μM final concentration) were serially diluted in DMSO (2% DMSO final concentration) and then mixed with recombinant thrombin (0.15 nM final concentration) or Factor Xa (0.35 nM final concentration) in TNC buffer (25 mM Tris, 150 mM NaCl, 5 mM CaCl2, 0.01% TRITON X-100, pH 8) using clear 384 well plates. […] Changes in absorbance at 405 nm were measured over time in a Biotek Synergy 2 plate (Winnoski, Vt.). Using GraphPad Prism version 6.04 software program, (GraphPad Software, San Diego, Calif., www.graphpad.com), a four parameter curve fit was used to determine the inhibitor IC50s from a plot of the mean reaction velocity versus the inhibitor concentration. Ki values were calculated from the IC50 values using the Cheng and Prusoff equation (Ki=IC50/(1+[S]/Km).

Factor Xa = Factor Xa (Homo sapiens, UniProt P00742); experiment: Chromogenic kinetic enzyme assay of Factor Xa
Chain of Factor Xa (P00742 235-488 limits assumed): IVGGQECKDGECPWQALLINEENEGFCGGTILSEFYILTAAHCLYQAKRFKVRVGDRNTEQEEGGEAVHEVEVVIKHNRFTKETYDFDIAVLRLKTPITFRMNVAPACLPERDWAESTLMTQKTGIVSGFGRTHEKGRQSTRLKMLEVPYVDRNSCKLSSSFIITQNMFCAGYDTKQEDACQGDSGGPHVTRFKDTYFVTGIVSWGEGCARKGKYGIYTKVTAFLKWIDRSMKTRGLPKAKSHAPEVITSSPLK
Chain of Factor Xa (P00742 41-179 partner limits assumed): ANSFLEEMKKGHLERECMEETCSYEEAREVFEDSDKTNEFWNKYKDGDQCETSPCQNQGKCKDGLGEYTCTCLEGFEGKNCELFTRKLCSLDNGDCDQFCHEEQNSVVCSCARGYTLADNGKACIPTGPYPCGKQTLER
Protocol: as §2

[1] = Table 6.2, headed Fluorogenic Assay, read-out: Thrombin Ki
[2] = Table 6.2, headed Fluorogenic Assay, read-out: Factor Xa Ki
[3] = Table 6.1, Fluorogenic Assay, read-out: Hepsin Ki

| Ki (HGFA; Table 6.1, Fluorogenic Assay) [nM] | Ki (thrombin; [1]) [nM] | Ki (Factor Xa; [2]) [nM] | SMILES | further results |
| --- | --- | --- | --- | --- |
| 133 | > 20000 | 1 | CC(=O)N[C@@H](Cc1c[nH]c2ccccc12)C(=O)N[C@@H](CC(C)C)C(=O)N[C@@H](Cc1ccccc1)C(=O)N[C@@H](CCCNC(=N)N)C(=O)c1nc2ccccc2s1 [Compound 7064, Ac-WLFR(SEQ ID NO: 20)-Kbt] | – |
| 15.8 | 1230 | 163 | CC(=O)N[C@@H](CO)C(=O)N[C@@H](CCCCN)C(=O)N[C@@H](CC(C)C)C(=O)N[C@@H](CCCNC(=N)N)C(=O)c1nc2ccc(C(=O)N[C@@H](Cc3c[nH]c4ccccc34)C(N)=O)cc2s1 [Compound 7124, Ac-SKLR(SEQ ID NO: 10)-Kbt-Trp— NH2] (Ac-SKL[X1]W-NH2) | – |
| 17.3 | 3640 | 544 | CC(=O)N[C@@H](CO)C(=O)N[C@@H](CCCCN)C(=O)N[C@@H](CC(C)C)C(=O)N[C@@H](CCCNC(=N)N)C(=O)c1nc2ccc(C(=O)N[C@@H](Cc3ccccc3)C(N)=O)cc2s1 [Compound 7125, Ac-SKLR(SEQ ID NO: 10)-Kbt-Phe— NH2] (Ac-SKL[X1]F-NH2) | Ki (hepsin; [3]): 0.14 nM |
| 31.8 | 3430 | 221 | CC(=O)N[C@@H](CO)C(=O)N[C@@H](CCCCN)C(=O)N[C@@H](CC(C)C)C(=O)N[C@@H](CCCNC(=N)N)C(=O)c1nc2ccc(C(=O)Nc3ccncc3)cc2s1 [Compound 7126, Ac-SKLR(SEQ ID NO: 10)-Kbt-4-pyridinylamide] | Ki (hepsin; [3]): 0.14 nM |
| 6.07 | 1940 | 20.2 | CC(=O)N[C@@H](CCCCN)C(=O)N[C@@H](CCCNC(=N)N)C(=O)N[C@@H](CC(C)C)C(=O)N[C@@H](CCCNC(=N)N)C(=O)c1nc2ccc(C(=O)NCc3cccc(C(=O)O)c3)cc2s1 [Compound 7165, Ac-KRLR(SEQ ID NO: 8)-Kbt-5-COOH] | – |
| 104 | 457 | 532 | CC(C)C[C@H](NC(=O)[C@@H](N)Cc1c[nH]c2ccccc12)C(=O)N[C@@H](CCCNC(=N)N)C(=O)c1nc2ccccc2s1 [Compound 7170, H-WLR-kbt] | – |
| 73.9 | 41 | 159 | CC(C)C[C@H](NC(=O)[C@@H](N)Cc1c[nH]c2ccccc12)C(=O)N[C@@H](CCCNC(=N)N)C(=O)c1nc2ccc(C(=O)N[C@H](C(N)=O)C(C)C)cc2s1 [Compound 7181, H-WLR-kbt V amide] | – |
| 450 | 995 | 410 | CC(C)C[C@H](NC(=O)OCC1c2ccccc2-c2ccccc21)C(=O)N[C@@H](CCCNC(=N)N)C(=O)c1nc2ccccc2s1 [Compound 7185-11, Fmoc-LR-kbt] | – |

Second part, the compound before the results:

| SMILES | Ki (HGFA; Table 6.1, Fluorogenic Assay) [nM] | Ki (thrombin; [1]) [nM] | Ki (Factor Xa; [2]) [nM] | further results |
| --- | --- | --- | --- | --- |
| CC(=O)N[C@@H](CCCCN)C(=O)N[C@@H](CCC(N)=O)C(=O)N[C@@H](CC(C)C)C(=O)N[C@@H](CCCNC(=N)N)C(=O)c1nc2ccc(C(=O)N[C@H](C(N)=O)C(C)C)cc2s1 [Compound 7055, Ac-KQLR(SEQ ID NO: 1)-Kbt-Val—NH2] (Ac-KQL[X1]V-NH2) | 12 | 3210 | 66 | Ki (HGFA): 13 nM; Ki (matriptase): 7 nM; Ki (hepsin; read-out: hepsin Ki): 0.3 nM |
| CC(=O)N[C@@H](CCCCN)C(=O)N[C@@H](CCCNC(=N)N)C(=O)N[C@@H](CC(C)C)C(=O)N[C@@H](CCCNC(=N)N)C(=O)c1nc2ccc(C(=O)N[C@H](C(N)=O)C(C)C)cc2s1 [Compound 7115, Ac-KRLR(SEQ ID NO: 8)-Kbt-Val—NH2] (Ac-KRL[X1]V-NH2) | 5.83 | 1560 | 17 | Ki (matriptase; Table 6.1, Fluorogenic Assay): 7.41 nM |
| CC(=O)N[C@@H](CO)C(=O)N[C@@H](CCCCN)C(=O)N[C@@H](CC(C)C)C(=O)N[C@@H](CCCNC(=N)N)C(=O)c1nc2ccc(C(=O)N[C@H](C(N)=O)C(C)C)cc2s1 [Compound 7116, Ac-SKLR(SEQ ID NO: 10)-Kbt-Val— NH2] (Ac-SKL[X1]V-NH2) | 13 | – | – | Ki (hepsin; [3]): 0.19 nM; Ki (thrombin): 4500 nM; Ki (Factor Xa): 385 nM |
| CC(=O)N[C@@H](CO)C(=O)N[C@@H](CCCCN)C(=O)N[C@@H](CC(C)C)C(=O)N[C@@H](CCCNC(=N)N)C(=O)c1nc2ccc(C(=O)O)cc2s1 [Compound 7118, Ac-SKLR(SEQ ID NO: 10)-Kbt-COOH] | 132 | > 2000 | 1250 | – |
| CC(=O)N[C@@H](CO)C(=O)N[C@@H](CCCCN)C(=O)N[C@@H](CC(C)C)C(=O)N[C@@H](CCCNC(=N)N)C(=O)c1nc2ccc(C(=O)NCc3ccccc3)cc2s1 [Compound 7139, Ac-SKLR(SEQ ID NO: 10)-Kbt- benzylamide] | 9.1 | 2470 | 190 | – |
| CC(=O)N[C@@H](CO)C(=O)N[C@@H](CCCCN)C(=O)N[C@@H](CC(C)C)C(=O)N[C@@H](CCCNC(=N)N)C(=O)c1nc2ccc(C(=O)NC3CCNCC3)cc2s1 [Compound 7140, Ac-SKLR(SEQ ID NO: 10)-Kbt-4-piperidinylamide] | 7.7 | 2950 | 447 | – |
| CC(C)C[C@H](NC(=O)[C@@H](N)CCCNC(=N)N)C(=O)N[C@@H](CCCNC(=N)N)C(=O)c1nc2ccccc2s1 [Compound 7171, H-RLR-kbt] | 83.1 | 8200 | 56 | – |
| CC(C)C[C@H](NC(=O)[C@@H](N)CCCNC(=N)N)C(=O)N[C@@H](CCCNC(=N)N)C(=O)c1nc2ccc(C(=O)N[C@H](C(N)=O)C(C)C)cc2s1 [Compound 7180, H-RLR-kbt V amide] | 12.5 | 548 | 18 | – |
| CC(C)C[C@H](NC(=O)[C@@H](N)CC(C)C)C(=O)N[C@@H](CCCNC(=N)N)C(=O)c1nc2ccc(C(=O)N[C@H](C(N)=O)C(C)C)cc2s1 [Compound 7182, H-LLR-kbt V amide] | 82.1 | 101 | 159 | – |
